Bridge positions count the residues as written; N and C are the ends. Square brackets hold non-standard residues; d marks the D form. Peptide text beside a SMILES is read from it. * marks the point of attachment. hPhe(3-Cl-4-CF3) = N[C@@H](CCc1ccc(C(F)(F)F)c(Cl)c1)C(=O)O; hPhe(3-F,4-CF3) = N[C@@H](CCc1ccc(C(F)(F)F)c(F)c1)C(=O)O; NMePhe(4-CF3) = CN[C@@H](Cc1ccc(C(F)(F)F)cc1)C(=O)O; NMeAbu(4,4,4-F3) = CN[C@@H](CC(F)(F)F)C(=O)O; NMePhe(4-Cl) = CN[C@@H](Cc1ccc(Cl)cc1)C(=O)O; NMePhe(2-OMe) = CN[C@@H](Cc1ccccc1OC)C(=O)O; NMePhe(4-Me) = CN[C@@H](Cc1ccc(C)cc1)C(=O)O; NMePhe(3-F) = CN[C@@H](Cc1cccc(F)c1)C(=O)O; NMeMet(O2) = CN[C@@H](CCS(C)(=O)=O)C(=O)O; Phe(3-I) = N[C@@H](Cc1cccc(I)c1)C(=O)O; NMeAla(cPr) = CN[C@@H](CC1CC1)C(=O)O; NMeCha = CN[C@@H](CC1CCCCC1)C(=O)O; NMeCba = CN[C@@H](CC1CCC1)C(=O)O; NMeChg = CN[C@H](C(=O)O)C1CCCCC1; hPhe = N[C@@H](CCc1ccccc1)C(=O)O; N(CH2CH2)2CF2 = FC1(F)CCN(*)CC1; NMeD = CN[C@@H](CC(=O)O)C(=O)O; NMeL = CN[C@@H](CC(C)C)C(=O)O; NMeV = CN[C@H](C(=O)O)C(C)C; d(β3hA) = C[C@@H](N)CC(=O)O; Pip = O=C(O)[C@@H]1CCCCN1; Ac6c = NC1(C(=O)O)CCCCC1; NMeA = CN[C@@H](C)C(=O)O; NMeAib = CNC(C)(C)C(=O)O; Nle = CCCC[C@H](N)C(=O)O; Piperidide = C1CCN(*)CC1; Pyrrolidide = C1CCN(*)C1; Ac5c = NC1(C(=O)O)CCCC1; Aze = O=C(O)[C@@H]1CCN1; Ac4c = NC1(C(=O)O)CCC1; Cyclobutyl = C1CC(*)C1; βAla = NCCC(=O)O; Sar = CNCC(=O)O
The molecules below were run on Human pancreatic cancer cell line AsPC-1 (G12D mutation Kras) (assay: AsPC-1 cell growth inhibition (AsPC-1 CGI)). Conditions: read-out: AsPC-1 cell growth inhibition, 50% growth inhibitory concentration (IC50 value); 96 hours, CellTiter-Glo, values classified in ranges.
Assay type: cell-based
Experimental: Test compounds were serially dilated with dimethyl sulfoxide, and 200 nL was then dispensed to a U-bottom 96-well plate using Labcyte Echo. […] The cell suspension was dispensed to a. plate containing a test compound at 100 μL per well and incubated at 37° C. in a 5% carbon dioxide gas incubator. 96 hours later, 80 μL of CellTiter-Glo (Promega) was added to each well and fluorescence was measured.
With `CC[C@H](C)[C@@H]1NC(=O)[C@@H]2CCCCN2C(=O)C[C@@H](C)NC(=O)[C@H](CC(C)C)N(C)C(=O)C2(CCCC2)NC(=O)[C@H](CC(C)C)N(C)C(=O)[C@H](CCc2ccc(C(F)(F)F)c(Cl)c2)NC(=O)CN(C)C(=O)[C@H](CC2CCCCC2)N(C)C(=O)CN(C)C(=O)CN(C)C1=O` [Compound 213] (cyclo([Ac5c][NMeL][d(β3hA)][Pip]I[Sar][Sar][NMeCha][Sar][hPhe(3-Cl-4-CF3)][NMeL])) the IC50 was greater than 0.5 µM. `CC[C@H](C)[C@@H]1NC(=O)[C@H](CC(C)C)N(C)C(=O)C[C@@H](C(=O)N(C)C)N(C)C(=O)[C@H](C(C)C)N(C)C(=O)C2(CCCC2)NC(=O)[C@H](CC(=O)N2CCC(F)(F)CC2)N(C)C(=O)[C@H](CCc2ccc(C(F)(F)F)c(Cl)c2)NC(=O)CN(C)C(=O)[C@H](CC2CCCCC2)N(C)C(=O)CN(C)C(=O)CN(C)C1=O` [Compound 218] ([NMeL]I[Sar][Sar][NMeCha][Sar][hPhe(3-Cl-4-CF3)][NMeD](N(CH2CH2)2CF2)[Ac5c][NMeV][NMeD]-NMe2; lactam N-11) showed an IC50 greater than 0.5 µM. `CC(C)C[C@H]1C(=O)N[C@@H](COC2CCC2)C(=O)N(C)CC(=O)N(C)CC(=O)N(C)[C@@H](CC2CCCCC2)C(=O)N(C)CC(=O)N[C@@H](CCc2ccc(C(F)(F)F)c(Cl)c2)C(=O)N2CCC[C@H]2C(=O)NC2(CCCC2)C(=O)N(C)[C@@H](C2CCCCC2)C(=O)N(C)[C@H](C(=O)N2CCCCC2)CC(=O)N1C` [Compound 226] ([NMeL]S(Cyclobutyl)[Sar][Sar][NMeCha][Sar][hPhe(3-Cl-4-CF3)]P[Ac5c][NMeChg][NMeD]-Piperidide; lactam N-11) showed an IC50 greater than 0.5 µM. For `CC[C@H](C)[C@@H]1NC(=O)[C@H](CC2CCC2)N(C)C(=O)C[C@@H](C)NC(=O)[C@H](C(C)C)N(C)C(=O)C2(CCCC2)NC(=O)[C@@H]2CCCN2C(=O)[C@H](CCc2ccc(C(F)(F)F)c(Cl)c2)NC(=O)CN(C)C(=O)[C@H](CC2CCCCC2)N(C)C(=O)CN(C)C(=O)CN(C)C1=O` [Compound 230] (cyclo([Ac5c][NMeV][d(β3hA)][NMeCba]I[Sar][Sar][NMeCha][Sar][hPhe(3-Cl-4-CF3)]P)), the IC50 was greater than 0.5 µM. In the case of `CC[C@H](C)[C@@H]1NC(=O)[C@H](CC(C)C)N(C)C(=O)C[C@@H](C)NC(=O)[C@H](CC(C)C)N(C)C(=O)C2(CCCCC2)NC(=O)[C@@H]2CCCN2C(=O)[C@H](CCc2ccc(C(F)(F)F)c(F)c2)NC(=O)CN(C)C(=O)[C@H](CC2CCCCC2)N(C)C(=O)CN(C)C(=O)CN(C)C1=O` [Compound 231] (cyclo([Ac6c][NMeL][d(β3hA)][NMeL]I[Sar][Sar][NMeCha][Sar][hPhe(3-F,4-CF3)]P)), the IC50 is reported as greater than 0.5 µM. `CCCC[C@@H]1NC(=O)[C@H](Cc2cccc(I)c2)NC(=O)CN(C)C(=O)[C@H](Cc2ccc(C)cc2)N(C)C(=O)CN(C)C(=O)CN(C)C(=O)[C@H]([C@@H](C)CC)NC(=O)[C@H](CC(C)C)N(C)C(=O)C[C@@H](C(=O)N2CCCCC2)N(C)C(=O)[C@H](CC(C)C)NC(=O)[C@H](C)N(C)C1=O` [Compound 232] ([NMeL]I[Sar][Sar][NMePhe(4-Me)][Sar][Phe(3-I)][Nle][NMeA]L[NMeD]-Piperidide; lactam N-11) gave an IC50 greater than 0.5 µM. In the case of `CC[C@H](C)[C@@H]1NC(=O)[C@H](CC(C)C)N(C)C(=O)C[C@@H](C(=O)N2CCCCC2)N(C)C(=O)[C@H](C(C)C)N(C)C(=O)C2(CCCC2)NC(=O)[C@@H]2CCCN2C(=O)[C@H](CCc2ccc(C(F)(F)F)c(Cl)c2)NC(=O)CN(C)C(=O)[C@H](CCS(C)(=O)=O)N(C)C(=O)[C@@H]2CCN2C(=O)[C@H](C)N(C)C1=O` [Compound 235] ([NMeL]I[NMeA][Aze][NMeMet(O2)][Sar][hPhe(3-Cl-4-CF3)]P[Ac5c][NMeV][NMeD]-Piperidide; lactam N-11), the IC50 is reported as greater than 0.5 µM. `CC[C@H](C)[C@@H]1NC(=O)CCNC(=O)[C@H](Cc2cccc(F)c2)N(C)C(=O)[C@H](C2CCCCC2)N(C)C(=O)C2(CCCC2)NC(=O)[C@@H]2CCCN2C(=O)[C@H](CCc2ccc(C(F)(F)F)c(Cl)c2)NC(=O)CN(C)C(=O)[C@H](CC2CCCCC2)N(C)C(=O)CN(C)C(=O)CN(C)C1=O` [Compound 237] (cyclo([Ac5c][NMeChg][NMePhe(3-F)][βAla]I[Sar][Sar][NMeCha][Sar][hPhe(3-Cl-4-CF3)]P)) gave an IC50 greater than 0.5 µM. For `CC[C@H](C)[C@@H]1NC(=O)[C@H](CC(F)(F)F)N(C)C(=O)C[C@@H](C(=O)N2CCCC2)N(C)C(=O)[C@H](C2CCCCC2)N(C)C(=O)C2(CCCC2)NC(=O)[C@@H]2CCCN2C(=O)[C@H](CCc2ccc(C(F)(F)F)c(Cl)c2)NC(=O)CN(C)C(=O)[C@H](Cc2ccc(C(F)(F)F)cc2)N(C)C(=O)CN(C)C(=O)CN(C)C1=O` [Compound 245] ([NMeAbu(4,4,4-F3)]I[Sar][Sar][NMePhe(4-CF3)][Sar][hPhe(3-Cl-4-CF3)]P[Ac5c][NMeChg][NMeD]-Pyrrolidide; lactam N-11), the IC50 was no more than 0.02 µM. Molecule `CC[C@H](C)[C@@H]1NC(=O)[C@H](CC(C)C)N(C)C(=O)C[C@@H](C(=O)N2CCCCC2)N(C)C(=O)[C@H](CC(C)C)NC(=O)C(C)(C)N(C)C(=O)[C@H](Cc2ccc(OC)cc2)NC(=O)[C@H](Cc2cccc(I)c2)NC(=O)CN(C)C(=O)[C@H](Cc2ccc(C)cc2)N(C)C(=O)CN(C)C(=O)CN(C)C1=O` [Compound 247] ([NMeL]I[Sar][Sar][NMePhe(4-Me)][Sar][Phe(3-I)]Y(Me)[NMeAib]L[NMeD]-Piperidide; lactam N-11) has an IC50 greater than 0.5 µM. Work on `CC[C@H](C)[C@@H]1NC(=O)[C@H](CC2CC2)N(C)C(=O)C[C@@H](C)NC(=O)[C@H](C(C)C)N(C)C(=O)C2(CCCC2)NC(=O)[C@@H]2CCCN2C(=O)[C@H](CCc2ccc(C(F)(F)F)c(Cl)c2)NC(=O)CN(C)C(=O)[C@H](CC2CCCCC2)N(C)C(=O)CN(C)C(=O)CN(C)C1=O` [Compound 248] (cyclo([Ac5c][NMeV][d(β3hA)][NMeAla(cPr)]I[Sar][Sar][NMeCha][Sar][hPhe(3-Cl-4-CF3)]P)) yielded an IC50 greater than 0.5 µM. `CC[C@H](C)[C@@H]1NC(=O)[C@H](CC(C)C)N(C)C(=O)C[C@@H](C(=O)N2CCCCC2)N(C)C(=O)[C@H](C(C)C)N(C)C(=O)C2(CCC2)NC(=O)[C@H](CC(=O)N2CCC(F)(F)CC2)N(C)C(=O)[C@H](CCc2ccc(C(F)(F)F)c(Cl)c2)NC(=O)CN(C)C(=O)[C@H](CC2CCCCC2)N(C)C(=O)CN(C)C(=O)CN(C)C1=O` [Compound 251] ([NMeL]I[Sar][Sar][NMeCha][Sar][hPhe(3-Cl-4-CF3)][NMeD](N(CH2CH2)2CF2)[Ac4c][NMeV][NMeD]-Piperidide; lactam N-11) gave an IC50 greater than 0.5 µM. Molecule `CCCC[C@@H]1NC(=O)[C@H](Cc2cccc(I)c2)NC(=O)CN(C)C(=O)[C@H](Cc2ccc(Cl)cc2)N(C)C(=O)CN(C)C(=O)CN(C)C(=O)[C@H]([C@@H](C)CC)NC(=O)[C@H](CC(C)C)N(C)C(=O)C[C@@H](C(=O)N2CCCCC2)N(C)C(=O)[C@H](CC(C)C)NC(=O)[C@H](Cc2ccccc2OC)N(C)C1=O` [Compound 259] ([NMeL]I[Sar][Sar][NMePhe(4-Cl)][Sar][Phe(3-I)][Nle][NMePhe(2-OMe)]L[NMeD]-Piperidide; lactam N-11) has an IC50 greater than 0.5 µM. `CC[C@H](C)[C@@H]1NC(=O)[C@H](CC(C)C)N(C)C(=O)C[C@@H](C(=O)N2CCCCC2)N(C)C(=O)[C@H](C(C)C)N(C)C(=O)C2(CCCC2)NC(=O)[C@@H]2CCCN2C(=O)[C@H](CCc2ccccc2)NC(=O)CN(C)C(=O)[C@H](CC2CCCCC2)N(C)C(=O)CN(C)C(=O)CN(C)C1=O` [Compound 265] ([NMeL]I[Sar][Sar][NMeCha][Sar][hPhe]P[Ac5c][NMeV][NMeD]-Piperidide; lactam N-11) showed an IC50 greater than 0.5 µM.

Source: patent US20240148821A1, “PHARMACEUTICAL USE OF CYCLIC PEPTIDE COMPOUND” (CHUGAI SEIYAKU KABUSHIKI KAISHA, priority 2021, published 2024)
